| melting point | Structure (SMILES) |
| --- | --- |
| 69 to 70 °C | CC(C)(O)C#Cc1nccs1 [Example 2, 2-Methyl-4-(1,3-thiazol-2-yl)-3-butyn-2-ol] |
| 124 to 125 °C | Clc1cncc(C#Cc2nccs2)c1 [Example 6, 3-Chloro-5-(1,3-thiazol-2-ylethynyl)pyridine] |
